{"source": "ChEMBL document CHEMBL3734724", "about": "“Anticancer efficacy of unique pyridine-based tetraindoles” (Eur J Med Chem, 2015)", "key": {"MDA-MB-231 [1]": {"system": "MDA-MB-231", "assay": "Antimetastatic activity against luciferase-expressing human MDA-MB-231 cells xenografted in nude mouse assessed as suppression of lung metastasis by measuring reduction of lung weight at 25 mg/kg, ip administered every other day measured on day 54 relative to vehicle-treated control", "assay_type": "functional", "parameters": "scale not given: the % may be the effect or the level left"}, "MDA-MB-231 [2]": {"system": "MDA-MB-231", "assay": "Cytotoxicity against human MDA-MB-231 cells assessed as growth inhibition after 48 hrs by MTT assay", "assay_type": "functional, cell-based", "conditions": "MDA-MB-231, 48 h"}, "[3]": {"assay": "Cytotoxicity against human Hs578T cells assessed as growth inhibition after 48 hrs by MTT assay", "assay_type": "functional, cell-based", "conditions": "Hs-578T"}, "MCF7": {"system": "MCF7", "assay": "Cytotoxicity against human MCF7 cells assessed as growth inhibition after 48 hrs by MTT assay", "assay_type": "functional, cell-based", "conditions": "MCF7, 48 h"}, "[4]": {"assay": "Cytotoxicity against human M10 cells assessed as growth inhibition at 20 uM after 48 hrs by MTT assay relative to control", "assay_type": "cell-based", "conditions": "read-out: GI"}, "MDA-MB-231 [5]": {"system": "MDA-MB-231", "assay": "Cell cycle arrest in human MDA-MB-231 cells assessed as accumulation at G0/G1 phase at 0.4 uM after 24 hrs by propidium iodide staining-based flow cytometric analysis (reference value: 57 +/- 6%)", "assay_type": "functional"}, "MDA-MB-231 [6]": {"system": "MDA-MB-231", "assay": "Cell cycle arrest in human MDA-MB-231 cells assessed as accumulation at G0/G1 phase at 1.6 uM after 24 hrs by propidium iodide staining-based flow cytometric analysis (reference value: 57 +/- 6%)", "assay_type": "functional"}, "MDA-MB-231 [7]": {"system": "MDA-MB-231", "assay": "Cell cycle arrest in human MDA-MB-231 cells assessed as accumulation at S phase at 0.8 uM after 24 hrs by propidium iodide staining-based flow cytometric analysis (reference value: 32 +/- 4%)", "assay_type": "functional"}, "MDA-MB-231 [8]": {"system": "MDA-MB-231", "assay": "Cell cycle arrest in human MDA-MB-231 cells assessed as accumulation at S phase at 1.6 uM after 24 hrs by propidium iodide staining-based flow cytometric analysis (reference value: 32 +/- 4%)", "assay_type": "functional"}, "MDA-MB-231 [9]": {"system": "MDA-MB-231", "assay": "Cell cycle arrest in human MDA-MB-231 cells assessed as accumulation at G2/M phase at 0.4 uM after 24 hrs by propidium iodide staining-based flow cytometric analysis (reference value: 12 +/- 2%)", "assay_type": "functional"}, "MDA-MB-231 [10]": {"system": "MDA-MB-231", "assay": "Cell cycle arrest in human MDA-MB-231 cells assessed as accumulation at G2/M phase at 0.8 uM after 24 hrs by propidium iodide staining-based flow cytometric analysis (reference value: 12 +/- 2%)", "assay_type": "functional"}, "MDA-MB-231 [11]": {"system": "MDA-MB-231", "assay": "Cell cycle arrest in human MDA-MB-231 cells assessed as accumulation at sub-G1 phase at 0.4 uM after 24 hrs by propidium iodide staining-based flow cytometric analysis relative to control", "assay_type": "functional"}, "MDA-MB-231 [12]": {"system": "MDA-MB-231", "assay": "Cell cycle arrest in human MDA-MB-231 cells assessed as accumulation at sub-G1 phase at 0.8 uM after 24 hrs by propidium iodide staining-based flow cytometric analysis relative to control", "assay_type": "functional"}, "MDA-MB-231 [13]": {"system": "MDA-MB-231", "assay": "Cell cycle arrest in human MDA-MB-231 cells assessed as accumulation at sub-G1 phase at 1.6 uM after 24 hrs by propidium iodide staining-based flow cytometric analysis relative to control", "assay_type": "functional"}, "MDA-MB-231 [14]": {"system": "MDA-MB-231", "assay": "Cell cycle arrest in human MDA-MB-231 cells assessed as accumulation at G0/G1 phase at 0.8 uM after 48 hrs by propidium iodide staining-based flow cytometric analysis (reference value: 57.8 +/- 0.7%)", "assay_type": "functional"}, "MDA-MB-231 [15]": {"system": "MDA-MB-231", "assay": "Cell cycle arrest in human MDA-MB-231 cells assessed as accumulation at G0/G1 phase at 1.6 uM after 48 hrs by propidium iodide staining-based flow cytometric analysis (reference value: 57.8 +/- 0.7%)", "assay_type": "functional"}, "MDA-MB-231 [16]": {"system": "MDA-MB-231", "assay": "Cell cycle arrest in human MDA-MB-231 cells assessed as accumulation at S phase at 0.8 uM after 48 hrs by propidium iodide staining-based flow cytometric analysis (reference value: 26 +/- 3%)", "assay_type": "functional"}, "MDA-MB-231 [17]": {"system": "MDA-MB-231", "assay": "Cell cycle arrest in human MDA-MB-231 cells assessed as accumulation at S phase at 1.6 uM after 48 hrs by propidium iodide staining-based flow cytometric analysis (reference value: 26 +/- 3%)", "assay_type": "functional"}, "MDA-MB-231 [18]": {"system": "MDA-MB-231", "assay": "Cell cycle arrest in human MDA-MB-231 cells assessed as accumulation at G2/M phase at 0.8 uM after 48 hrs by propidium iodide staining-based flow cytometric analysis (reference value: 16 +/- 3%)", "assay_type": "functional"}, "MDA-MB-231 [19]": {"system": "MDA-MB-231", "assay": "Cell cycle arrest in human MDA-MB-231 cells assessed as accumulation at G2/M phase at 1.6 uM after 48 hrs by propidium iodide staining-based flow cytometric analysis (reference value: 16 +/- 3%)", "assay_type": "functional"}, "MDA-MB-231 [20]": {"system": "MDA-MB-231", "assay": "Cell cycle arrest in human MDA-MB-231 cells assessed as accumulation at sub-G1 phase at 0.4 uM after 48 hrs by propidium iodide staining-based flow cytometric analysis relative to control", "assay_type": "functional"}, "MDA-MB-231 [21]": {"system": "MDA-MB-231", "assay": "Cell cycle arrest in human MDA-MB-231 cells assessed as accumulation at sub-G1 phase at 0.8 uM after 48 hrs by propidium iodide staining-based flow cytometric analysis relative to control", "assay_type": "functional"}, "MDA-MB-231 [22]": {"system": "MDA-MB-231", "assay": "Upregulation of cyclin B1 protein expression in human MDA-MB-231 cells at 0.4 to 3.2 uM after 48 hrs by Western blot analysis relative to control", "assay_type": "functional, cell-based"}, "MDA-MB-231 [23]": {"system": "MDA-MB-231", "assay": "Downregulation of cyclin A protein expression in human MDA-MB-231 cells at 0.4 to 3.2 uM after 48 hrs by Western blot analysis relative to control", "assay_type": "functional, cell-based"}, "MDA-MB-231 [24]": {"system": "MDA-MB-231", "assay": "Reduction of phospho-cdc2 (Tyr15) dephosphorylation in human MDA-MB-231 cells after 48 hrs by Western blot analysis", "assay_type": "functional, cell-based"}, "MDA-MB-231 [25]": {"system": "MDA-MB-231", "assay": "Upregulation of phosphorylated chk2 protein expression in human MDA-MB-231 cells after 48 hrs by Western blot analysis", "assay_type": "functional, cell-based"}, "MDA-MB-231 [26]": {"system": "MDA-MB-231", "assay": "Induction of apoptosis in human MDA-MB-231 cells assessed as DNA ladder formation at 0.4 to 3.2 uM after 24 hrs", "assay_type": "functional, cell-based"}, "MDA-MB-231 [27]": {"system": "MDA-MB-231", "assay": "Induction of apoptosis in human MDA-MB-231 cells assessed as DNA ladder formation at 0.2 to 3.2 uM after 48 hrs", "assay_type": "functional, cell-based"}, "MDA-MB-231 [28]": {"system": "MDA-MB-231", "assay": "Induction of DNA damage in human MDA-MB-231 cells at 3.2 uM after 48 hrs by alkaline comet assay relative to control", "assay_type": "functional"}, "MDA-MB-231 [29]": {"system": "MDA-MB-231", "assay": "Downregulation of Bcl-xL protein expression in human MDA-MB-231 cells after 48 hrs by Western blot analysis", "assay_type": "functional, cell-based"}, "MDA-MB-231 [30]": {"system": "MDA-MB-231", "assay": "Upregulation of Bax protein expression in human MDA-MB-231 cells after 48 hrs by Western blot analysis", "assay_type": "functional, cell-based"}, "MDA-MB-231 [31]": {"system": "MDA-MB-231", "assay": "Antitumor activity against luciferase-expressing human MDA-MB-231 cells xenografted in nude mouse assessed as tumor growth inhibition at 10 mg/kg, ip administered every other day measured on day 54 relative to vehicle-treated control", "assay_type": "functional", "conditions": "MDA-MB-231, ip, 1296 h, read-out: TGI"}, "MDA-MB-231 [32]": {"system": "MDA-MB-231", "assay": "Antitumor activity against luciferase-expressing human MDA-MB-231 cells xenografted in nude mouse assessed as tumor growth inhibition at 25 mg/kg, ip administered every other day measured on day 54 relative to vehicle-treated control", "assay_type": "functional", "conditions": "MDA-MB-231, ip, 1296 h, read-out: TGI"}, "Mus musculus": {"system": "Mus musculus", "assay": "Toxicity in nude mouse xenografted with luciferase-expressing human MDA-MB-231 cells assessed as change in body weight at 10 to 25 mg/kg, ip administered every other day measured weekly up to day 54 relative to vehicle-treated control", "assay_type": "organism-based", "conditions": "in vivo"}, "MDA-MB-231 [33]": {"system": "MDA-MB-231", "assay": "Antimetastatic activity against luciferase-expressing human MDA-MB-231 cells xenografted in ip dosed nude mouse assessed as reduction of lung metastasis administered every other day measured on day 54", "assay_type": "functional, organism-based"}}, "note": "pIC50: −log10 of the molar value. Activity calls are given as the source filed them. The calls are words filed in the database; no cut-off is given here.", "data": [{"molecule": "Oc1ccc2[nH]cc(C(c3ccc(C(c4c[nH]c5ccc(O)cc45)c4c[nH]c5ccc(O)cc45)nc3)c3c[nH]c4ccc(O)cc34)c2c1", "values": [{"measurement": "Activity", "setting": "MDA-MB-231 [1]", "result": 22, "unit": "%"}, {"measurement": "pIC50", "setting": "MDA-MB-231 [2]", "result": 6.10}, {"measurement": "pIC50", "setting": "[3]", "result": "< 4.70"}, {"measurement": "pIC50", "setting": "MCF7", "result": 4.85}, {"measurement": "inhibition at 48 h, 20 µM", "setting": "[4]", "result": 37, "unit": "%"}, {"measurement": "Activity", "setting": "MDA-MB-231 [5]", "result": 53, "unit": "%"}, {"measurement": "Activity", "setting": "MDA-MB-231 [6]", "result": 53, "unit": "%"}, {"measurement": "Activity", "setting": "MDA-MB-231 [7]", "result": 31, "unit": "%"}, {"measurement": "Activity", "setting": "MDA-MB-231 [8]", "result": 27, "unit": "%"}, {"measurement": "Activity", "setting": "MDA-MB-231 [9]", "result": 13.2, "unit": "%"}, {"measurement": "Activity", "setting": "MDA-MB-231 [10]", "result": 14.7, "unit": "%"}, {"measurement": "Activity", "setting": "MDA-MB-231 [11]", "result": 0.1, "unit": "%"}, {"measurement": "Activity", "setting": "MDA-MB-231 [12]", "result": 1.5, "unit": "%"}, {"measurement": "Activity", "setting": "MDA-MB-231 [13]", "result": 16, "unit": "%"}, {"measurement": "Activity", "setting": "MDA-MB-231 [14]", "result": 49, "unit": "%"}, {"measurement": "Activity", "setting": "MDA-MB-231 [15]", "result": 45, "unit": "%"}, {"measurement": "Activity", "setting": "MDA-MB-231 [16]", "result": 29, "unit": "%"}, {"measurement": "Activity", "setting": "MDA-MB-231 [17]", "result": 32, "unit": "%"}, {"measurement": "Activity", "setting": "MDA-MB-231 [18]", "result": 22, "unit": "%"}, {"measurement": "Activity", "setting": "MDA-MB-231 [19]", "result": 24, "unit": "%"}, {"measurement": "Activity", "setting": "MDA-MB-231 [20]", "result": 1.3, "unit": "%"}, {"measurement": "Activity", "setting": "MDA-MB-231 [21]", "result": 12, "unit": "%"}, {"measurement": "Activity", "setting": "MDA-MB-231 [22]", "result": "Active"}, {"measurement": "Activity", "setting": "MDA-MB-231 [23]", "result": "Active"}, {"measurement": "Activity", "setting": "MDA-MB-231 [24]", "result": "Dose-dependent effect"}, {"measurement": "Activity", "setting": "MDA-MB-231 [25]", "result": "Dose-dependent effect"}, {"measurement": "Activity", "setting": "MDA-MB-231 [26]", "result": "inactive"}, {"measurement": "Activity", "setting": "MDA-MB-231 [27]", "result": "Active"}, {"measurement": "fold change (FC)", "setting": "MDA-MB-231 [28]", "result": 12}, {"measurement": "Activity", "setting": "MDA-MB-231 [29]", "result": "Dose-dependent effect"}, {"measurement": "Activity", "setting": "MDA-MB-231 [30]", "result": "Dose-dependent effect"}, {"measurement": "inhibition in vivo at 10 mg/kg", "setting": "MDA-MB-231 [31]", "result": 58, "unit": "%"}, {"measurement": "inhibition in vivo at 25 mg/kg", "setting": "MDA-MB-231 [32]", "result": 70, "unit": "%"}, {"measurement": "Activity", "setting": "Mus musculus", "result": "Non-toxic"}, {"measurement": "Activity", "setting": "MDA-MB-231 [33]", "result": "Dose-dependent effect"}]}]}
